Activity calls are given as the source filed them. No rule for the calls is given here.
Tested on: CCRIS mutagenicity, Ames/micronucleus/aberration tests
Test: CCRIS mutagenicity studies
[1] = Test System: AMES SALMONELLA TYPHIMURIUM, Strain/Indicator: TA97, Metabolic Activation: NONE, Method: PREINCUBATION
[2] = Test System: AMES SALMONELLA TYPHIMURIUM, Strain/Indicator: TA98, Metabolic Activation: NONE, Method: PREINCUBATION
[3] = Test System: AMES SALMONELLA TYPHIMURIUM, Strain/Indicator: TA100, Metabolic Activation: NONE, Method: PREINCUBATION

With `COc1cc(O)c2c(=O)c3cc(O)ccc3oc2c1` the mutagenic call (Test System: AMES SALMONELLA TYPHIMURIUM, Strain/Indicator: TA97, Metabolic Activation: RAT, LIVER, S-9, PHENOBARBITAL AND 5,6-BENZOFLAVONE, Method: PREINCUBATION) was “active; positive”, the mutagenic call (Test System: AMES SALMONELLA TYPHIMURIUM, Strain/Indicator: TA98, Metabolic Activation: RAT, LIVER, S-9, PHENOBARBITAL AND 5,6-BENZOFLAVONE, Method: PREINCUBATION) was “inactive; negative” and the mutagenic call (Test System: AMES SALMONELLA TYPHIMURIUM, Strain/Indicator: TA100, Metabolic Activation: RAT, LIVER, S-9, PHENOBARBITAL AND 5,6-BENZOFLAVONE, Method: PREINCUBATION) was “inactive; negative”. For the same molecule, the mutagenic call (Test System: AMES SALMONELLA TYPHIMURIUM, Strain/Indicator: TA2637, Metabolic Activation: RAT, LIVER, S-9, 5,6-BENZOFLAVONE AND/OR SODIUM PHENOBARBITAL, Method: PREINCUBATION) was “active; positive”, the mutagenic call (Test System: AMES SALMONELLA TYPHIMURIUM, Strain/Indicator: TA2637, Metabolic Activation: RAT, LIVER, S-9, PHENOBARBITAL AND 5,6-BENZOFLAVONE, Method: PREINCUBATION) was “active; positive” and the mutagenic call (Test System: AMES SALMONELLA TYPHIMURIUM, Strain/Indicator: TA2637, Metabolic Activation: RAT, LIVER, S-105, 5,6-BENZOFLAVONE AND/OR SODIUM PHENOBARBITAL, Method: PREINCUBATION) was “inactive; negative”.
In the case of `O=C(O)C1CCCCC1`, the mutagenic call (Test System: UDS RAT GASTRIC MUCOSAL CELLS, Strain/Indicator: THY INCORP, Metabolic Activation: NONE, Method: LIQUID SCINTILLATION COUNTING) is reported as “inactive; negative”.
With `O[C@H]1[C@H]2O[C@H]2c2c(ccc3ccccc23)[C@@H]1O` the mutagenic call [1] was “active; positive”, the mutagenic call [2] was “active; positive” and the mutagenic call [3] was “active; positive”. For the same molecule, the mutagenic call (Test System: AMES SALMONELLA TYPHIMURIUM, Strain/Indicator: TA100, Metabolic Activation: NONE, Method: STANDARD PLATE) was “active; positive”, the mutagenic call (Test System: AMES SALMONELLA TYPHIMURIUM, Strain/Indicator: TA104, Metabolic Activation: NONE, Method: PREINCUBATION) was “active; positive” and the mutagenic call (Test System: CHINESE HAMSTER V-79, Strain/Indicator: V-79/6-THIOGUANINE, Metabolic Activation: NONE) was “active; positive”.
For `O=c1ccn([C@H]2C[C@H](O)[C@@H](CO)O2)c(=O)[nH]1`, the mutagenic call [1] was “inactive; negative”, the mutagenic call (Test System: AMES SALMONELLA TYPHIMURIUM, Strain/Indicator: TA97, Metabolic Activation: RAT, LIVER, S-9, AROCLOR 1254, Method: PREINCUBATION) was “inactive; negative” and the mutagenic call [3] was “inactive; negative”. For the same molecule, the mutagenic call (Test System: AMES SALMONELLA TYPHIMURIUM, Strain/Indicator: TA100, Metabolic Activation: RAT, LIVER, S-9, AROCLOR 1254, Method: PREINCUBATION) was “inactive; negative” and the mutagenic call (Test System: CHINESE HAMSTER V-79, Strain/Indicator: V-79/8-AZAGUANINE, Metabolic Activation: NONE) was “inactive; negative”.
For `CN1C(CSCC(F)(F)F)Nc2cc(Cl)c(S(N)(=O)=O)cc2S1(=O)=O` (stereo not given), the mutagenic call (Test System: AMES SALMONELLA TYPHIMURIUM, Strain/Indicator: TA97, Metabolic Activation: HAMSTER, LIVER, S-9, AROCLOR 1254 (10 OR 30%), Method: PREINCUBATION) was “inactive; negative”, the mutagenic call [1] was “inactive; negative” and the mutagenic call (Test System: AMES SALMONELLA TYPHIMURIUM, Strain/Indicator: TA97, Metabolic Activation: RAT, LIVER, S-9, AROCLOR 1254 (10 OR 30%), Method: PREINCUBATION) was “inactive; negative”. The mutagenic call (Test System: AMES SALMONELLA TYPHIMURIUM, Strain/Indicator: TA98, Metabolic Activation: HAMSTER, LIVER, S-9, AROCLOR 1254 (10 OR 30%), Method: PREINCUBATION) was “inactive; negative”, the mutagenic call [2] was “inactive; negative” and the mutagenic call (Test System: AMES SALMONELLA TYPHIMURIUM, Strain/Indicator: TA98, Metabolic Activation: RAT, LIVER, S-9, AROCLOR 1254 (10 OR 30%), Method: PREINCUBATION) was “inactive; negative”. For the same molecule, the mutagenic call (Test System: AMES SALMONELLA TYPHIMURIUM, Strain/Indicator: TA100, Metabolic Activation: HAMSTER, LIVER, S-9, AROCLOR 1254 (10 OR 30%), Method: PREINCUBATION) was “inactive; negative”, the mutagenic call [3] was “inactive; negative” and the mutagenic call (Test System: AMES SALMONELLA TYPHIMURIUM, Strain/Indicator: TA100, Metabolic Activation: RAT, LIVER, S-9, AROCLOR 1254 (10 OR 30%), Method: PREINCUBATION) was “inactive; negative”. For the same molecule, the mutagenic call (Test System: AMES SALMONELLA TYPHIMURIUM, Strain/Indicator: TA1535, Metabolic Activation: HAMSTER, LIVER, S-9, AROCLOR 1254 (10 OR 30%), Method: PREINCUBATION) was “inactive; negative”, the mutagenic call (Test System: AMES SALMONELLA TYPHIMURIUM, Strain/Indicator: TA1535, Metabolic Activation: NONE, Method: PREINCUBATION) was “inactive; negative” and the mutagenic call (Test System: AMES SALMONELLA TYPHIMURIUM, Strain/Indicator: TA1535, Metabolic Activation: RAT, LIVER, S-9, AROCLOR 1254 (10 OR 30%), Method: PREINCUBATION) was “inactive; negative”.
